Results: US8513266B2, “Methods of treating cancer using pyridopyrimidinone inhibitors of PI3K alpha” (priority 2007, dated 2013)

How the values were obtained:
Type in all cases: in vivo
[1] = system: MCF7 human mammary adenocarcinoma cells; test: MCF7 breast cancer xenograft model; conditions: MCF7 tumors at end of study, 30 mg/kg qd each agent, alone or combined
Procedure: (§1) Female and male athymic nude mice (NCr) 5-8 weeks of age and weighing approximately 20-25 g were used in the following model. Prior to initiation of a study, the animals were allowed to acclimate for a minimum of 48 h. During these studies, animals were provided food and water ad libitum and housed in a room conditioned at 70-75° F. and 60% relative humidity. A 12 h light and 12 h dark cycle was maintained with automatic timers. All animals were examined daily for compound-induced or tumor-related deaths.
MCF7 human mammary adenocarcinoma cells were cultured in vitro in DMEM (Cellgro) supplemented with 10% Fetal Bovine Serum (Cellgro), Penicillin-Streptomycin and non-essential amino acids at 37° C. in a humidified 5% CO2 atmosphere. […] A transponder was implanted into each mouse for identification and data tracking, and animals were monitored daily for clinical symptoms and survival. During the dosing period, the tumor weight of each animal was determined twice weekly and the body weight of each animal was measured daily. […]
For subcutaneous or intradermal tumors, the mean tumor weight of each animal in the respective control and treatment groups was determined twice weekly during the study. Tumor weight (TW) was determined by measuring perpendicular diameters with a caliper, using the following formula: tumor weight (mg)=[tumor volume=length (mm)×width^2 (mm^2)]/2 […]

[2] = system: A549 human lung carcinoma cells; test: A549 non-small cell lung cancer xenograft model; conditions: Compound A 30 mg/kg qd
Procedure: as §1
A549 human lung carcinoma cells were cultured in vitro in DMEM (Mediatech) supplemented with 10% Fetal Bovine Serum (Hyclone), PenicilliN-Streptomycin and non-essential amino acids at 37° C. in a humidified 5% CO2 atmosphere. […] A transponder was implanted in each mouse for identification, and animals were monitored daily for clinical symptoms and survival. Body weights were recorded daily. […]
(§2) For subcutaneous or intradermal tumors, the mean tumor weight of each animal in the respective control and treatment groups was determined twice weekly during the study. Tumor weight (TW) was determined by measuring perpendicular diameters with a caliper, using the following formula: tumor weight (mg)=[tumor volume=length (mm)×width^2 (mm^2)]/2
(§3) Percent inhibition of tumor growth (TGI) is determined with the following formula: […]

[3] = system: Calu-6 human lung anaplastic carcinoma cells; test: Calu-6 non-small cell lung cancer xenograft model; conditions: Calu-6 xenograft, single agents; Compound A 100 mg/kg q2d or 30 mg/kg bid oral; carboplatin 50 mg/kg i.v. q4d
Procedure: as §1
Calu-6 human lung anaplastic carcinoma cells were cultured in vitro in DMEM (Mediatech) supplemented with 10% Fetal Bovine Serum (Hyclone), Penicillin-Streptomycin and non-essential amino acids at 37° C. in a humidified, 5% CO2 atmosphere. […] A transponder was implanted in each mouse for identification, and animals were monitored daily for clinical symptoms and survival. Body weights were recorded daily. […]
as §2, §3

[4] = system: PC-3 human prostate adenocarcinoma cells
Procedure: as §1
PC-3 human prostate adenocarcinoma cells were cultured in vitro in DMEM (Mediatech) supplemented with 20% Fetal Bovine Serum (Hyclone), Penicillin-Streptomycin and non-essential amino acids at 37° C. in a humidified 5% CO2 atmosphere. […] A transponder was implanted in each mouse for identification, and animals were monitored daily for clinical symptoms and survival. Body weights were recorded daily. […]
as §2, §3

[5] = system: MDA-MB-468 human breast adenocarcinoma cells; conditions: MDA-MB-468 xenograft; erlotinib 100 mg/kg qd oral; Compound A 100 mg/kg q2d oral; combination of the two
Procedure: Female and male athymic nude mice (NCr) 5-8 weeks of age and weighing approximately 20-25 g were used in the following model. Prior to initiation of a study, the animals were allowed to acclimate for a minimum of 48 h. During these studies, animals were provided food and water ad libitum and housed in a room conditioned at 70-75° F. and 60% relative humidity. A 12 h light and 12 h dark cycle was maintained with automatic timers. All animals were examined daily for compound-induced or tumor-related deaths. […]
as §2
Percent inhibition of tumor growth (TGI) is determined with the following formula:
[formula] • where X0=average TW of all tumors on group day • Xf=TW of treated group on Day f • Yf=TW of vehicle control group on Day f If tumors regress below their starting sizes, then the percent tumor regression is determined with the following formula:
[formula] Tumor size is calculated individually for each tumor to obtain a mean±SEM value for each experimental group. […]

Structure (SMILES): COc1cc2c(Nc3ccc(Cl)c(Cl)c3F)ncnc2cc1OC[C@@H]1C[C@@H]2CN(C)C[C@@H]2C1 [Compound B, N-(3,4-dichloro-2-fluorophenyl)-7-({[(3aR,5r,6aS)-2-methyloctahydrocyclopenta-[c]pyrrol-5-yl]methyl}oxy)-6-(methyloxy)quinazolin-4-amine]
- induction of TUNEL-positive (apoptotic) cells ([1]; compared to vehicle control): did not result in a significant induction
- decrease in CD31-positive tumor vessels (microvessel density, MVD) [1]: 31%
- tumor growth inhibition (TGI) (FIG. 4a) ([2]; Compound B 30 mg/kg qd oral for 18 days, combination: Compound B followed by Compound A after about six hours): 80%
- dose skipping ([2]; Compound B 30 mg/kg qd, alone or co-administered): no dose omission

Structure (SMILES): N.N.O=C([O-])C1(C(=O)[O-])CCC1.[Pt+2] [carboplatin]
- tumor growth inhibition (FIG. 3) [3]: Significant tumor growth inhibition

Structure (SMILES): CC(=O)O[C@H]1C(=O)[C@@]2(C)[C@H]([C@H](OC(=O)c3ccccc3)[C@]3(O)C[C@H](OC(=O)[C@H](O)[C@@H](NC(=O)c4ccccc4)c4ccccc4)C(C)=C1C3(C)C)[C@]1(OC(C)=O)CO[C@@H]1C[C@@H]2O [taxol, Paclitaxel]
- tumor growth inhibition (FIG. 1) ([4]; PC-3 xenograft, Compound A 100 mg/kg q2d or 30 mg/kg bid oral, taxol 7.5 mg/kg i.v. twice weekly, combination of either dose of Compound A with taxol): Comparable tumor growth inhibition

Structure (SMILES): CO[C@H]1C[C@@H]2CC[C@@H](C)[C@@](O)(O2)C(=O)C(=O)N2CCCC[C@H]2C(=O)O[C@H]([C@H](C)C[C@@H]2CC[C@@H](O)[C@H](OC)C2)CC(=O)[C@H](C)/C=C(\C)[C@@H](O)[C@@H](OC)C(=O)[C@H](C)C[C@H](C)/C=C/C=C/C=C/1C [rapamycin, Rapamycin]
- decrease in the fraction of proliferating cells (Ki67) (FIG. 6) ([4]; PC-3 tumors resected at end of efficacy study, Compound A 100 mg/kg q2d, rapamycin, monotherapy or combined): 77%

Structure (SMILES): C#Cc1cccc(Nc2ncnc3cc(OCCOC)c(OCCOC)cc23)c1 [erlotinib]
- tumor growth inhibition (FIG. 5) [5]: significant but incomplete tumor growth inhibition
